The values that follow come from ChEMBL document CHEMBL5357015, “Synthesis, Antiacetylcholinesterase Activity, and Molecular Dynamics Simulation of Aporphine-benzylpyridinium Conjugates” (ACS Med Chem Lett, 2024).

Structures can show the parent of a compound that is named as a salt.

The target of series [1] is T1, Acetylcholinesterase (Electrophorus electricus, UniProt O42275). The experiment in a line: Inhibition of electric eel AChE using acetylthiocholine iodide as substrate preincubated for 20 mins followed by substrate addition and measured every 20 secs for 3 mins by Ellman's method. On the technique in general: DTNB colorimetry detects thiols as they appear.
For series [2], the target named is Cholinesterase (Equus caballus, UniProt P81908). The experiment in a line: Inhibition of horse serum BuChE using butyrylthiocholine iodide as substrate preincubated for 20 mins followed by substrate addition and measured every 20 secs for 3 mins by Ellman's method.
The nature of series [3]: Selectivity index, ratio of IC50 for horse serum BuChE using butyrylthiocholine iodide as substrate to IC50 for electric eel AChE using acetylthiocholine iodide as substrate.
Series [4] can be described thus: Lipophilicity, log P of the compound in n-octanol/water by HPLC method. Type of series: physicochemical.
The target of series [5] is Acetylcholinesterase (Electrophorus electricus) (UniProt O42275). Put plainly: Inhibition of electric eel AChE using acetylthiocholine iodide as substrate at 10 uM preincubated for 20 mins followed by substrate addition and measured every 20 secs for 3 mins by Ellman's method relative to control. To be noted: time 23.0 min.
For series [6], the system named is MRC5. The experiment in a line: Cytotoxicity against human MRC5 cells assessed as reduction in cell viability at 50 ug/ml relative to control. The class given is toxicity, cell-based. To be noted: at 50 µg/mL.
For series [7], the target named is T1, Acetylcholinesterase. The experiment in a line: Binding affinity to electric eel AChE assessed as inhibition constant by Lineweaver-Burk plot analysis.
A short description of series [8]: Cytotoxicity against human MRC5 cells assessed as reduction in cell viability. Type of series: toxicity, cell-based.

Sequence of Cholinesterase (P81908 whole entry): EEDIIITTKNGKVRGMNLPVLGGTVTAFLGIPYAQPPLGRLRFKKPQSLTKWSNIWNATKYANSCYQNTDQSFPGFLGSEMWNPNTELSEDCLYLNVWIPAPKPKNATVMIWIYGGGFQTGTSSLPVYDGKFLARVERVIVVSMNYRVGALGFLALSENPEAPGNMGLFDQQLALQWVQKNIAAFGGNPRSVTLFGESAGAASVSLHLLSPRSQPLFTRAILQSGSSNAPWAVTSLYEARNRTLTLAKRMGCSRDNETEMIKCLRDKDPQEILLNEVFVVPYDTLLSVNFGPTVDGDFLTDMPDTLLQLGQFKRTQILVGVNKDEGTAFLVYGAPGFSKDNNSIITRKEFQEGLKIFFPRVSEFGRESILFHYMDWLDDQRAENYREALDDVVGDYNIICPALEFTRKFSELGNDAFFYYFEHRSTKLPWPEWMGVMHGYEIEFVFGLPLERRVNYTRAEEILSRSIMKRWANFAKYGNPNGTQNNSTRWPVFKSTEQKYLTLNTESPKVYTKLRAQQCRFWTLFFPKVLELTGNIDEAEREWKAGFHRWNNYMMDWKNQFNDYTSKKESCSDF
Sequence of Acetylcholinesterase (Electrophorus electricus) (O42275 24-633 limits assumed): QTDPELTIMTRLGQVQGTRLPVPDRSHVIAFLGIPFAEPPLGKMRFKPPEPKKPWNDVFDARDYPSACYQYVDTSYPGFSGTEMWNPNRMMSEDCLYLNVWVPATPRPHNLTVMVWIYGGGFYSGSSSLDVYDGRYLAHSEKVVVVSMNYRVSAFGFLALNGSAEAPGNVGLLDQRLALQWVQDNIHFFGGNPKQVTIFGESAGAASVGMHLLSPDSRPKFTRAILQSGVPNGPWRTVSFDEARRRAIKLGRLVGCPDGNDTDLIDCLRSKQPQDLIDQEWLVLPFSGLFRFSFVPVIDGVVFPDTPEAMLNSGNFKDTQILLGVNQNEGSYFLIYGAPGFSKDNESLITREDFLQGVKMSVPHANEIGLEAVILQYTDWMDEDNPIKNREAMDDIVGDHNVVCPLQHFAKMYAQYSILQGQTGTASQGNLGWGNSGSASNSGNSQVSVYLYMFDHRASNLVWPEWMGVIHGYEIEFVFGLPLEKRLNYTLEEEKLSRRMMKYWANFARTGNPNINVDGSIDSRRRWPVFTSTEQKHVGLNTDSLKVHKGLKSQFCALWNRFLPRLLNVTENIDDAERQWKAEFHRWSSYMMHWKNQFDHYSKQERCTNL
T1 sequence (O42275 whole entry): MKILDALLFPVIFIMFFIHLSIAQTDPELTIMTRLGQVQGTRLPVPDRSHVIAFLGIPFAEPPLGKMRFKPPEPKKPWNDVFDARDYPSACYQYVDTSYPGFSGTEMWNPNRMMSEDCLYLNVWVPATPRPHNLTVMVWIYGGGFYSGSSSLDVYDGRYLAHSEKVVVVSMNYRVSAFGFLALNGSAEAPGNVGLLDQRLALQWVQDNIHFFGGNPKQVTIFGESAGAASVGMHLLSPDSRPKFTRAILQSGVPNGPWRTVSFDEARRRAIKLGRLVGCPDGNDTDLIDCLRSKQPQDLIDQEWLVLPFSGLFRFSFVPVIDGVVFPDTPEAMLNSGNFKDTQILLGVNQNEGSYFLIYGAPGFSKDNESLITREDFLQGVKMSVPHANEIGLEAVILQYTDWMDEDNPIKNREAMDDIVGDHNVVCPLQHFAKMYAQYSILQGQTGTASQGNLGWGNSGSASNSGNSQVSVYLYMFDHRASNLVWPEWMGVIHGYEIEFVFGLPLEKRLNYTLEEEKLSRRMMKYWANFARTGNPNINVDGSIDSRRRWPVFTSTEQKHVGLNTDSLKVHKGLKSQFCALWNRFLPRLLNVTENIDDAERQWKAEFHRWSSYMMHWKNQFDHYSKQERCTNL

By IC50 is commonly meant the concentration that inhibits the measured activity by half. For `COc1cc2c3c(cc4ccccc4c3c1OC)N(C(=O)c1cc[n+](Cc3ccccc3Cl)cc1)CC2`, the IC50 in series [1] was determined as 1640 nM; in series [2], 440 nM. Also, in series [3], the Ratio IC50 is 0.3.

One may read the logP as the decadic logarithm of the partition coefficient of the neutral form, usually between octanol and water. Take `COc1cc2c3c(c1OC)-c1ccccc1CC3N(C(=O)c1cc[n+](Cc3c(F)cccc3F)cc1)CC2` (racemic): the IC50 came to 800 nM in series [1] and 970 nM in series [2]. For the same compound, the Ratio IC50 in series [3] was 1.2. The compound also showed a logP in series [4] of 2.08.

The inhibition is the drop in the measured response relative to a control, in per cent. Higher therefore signals a response far below the control. Regarding `COc1cc2c3c(cc4ccccc4c3c1OC)NCC2`, the inhibition in series [5] stood at 12%.

For `COc1cc2c3c(c1OC)-c1ccccc1CC3N(C(=O)c1cc[n+](Cc3ccccc3F)cc1)CC2` (racemic), the values for the IC50 in series [1] and in series [2] were 410 nM and 1370 nM, respectively. Besides, the Ratio IC50 in series [3] came to 3.3.

For the compound `COc1cc2c3c(c1OC)-c1ccccc1CC3N(C(=O)c1cc[n+](Cc3ccc(F)cc3)cc1)CC2.[Br-]` (racemic), the IC50 turned out to be 660 nM in series [1] and 4730 nM in series [2]. Further, in series [3], the Ratio IC50 amounted to 7. For the same compound, in series [6], the Activity is on record as 2.46%. For the same compound, the logP in series [4] came to 2.3.

`COc1cc2c3c(c1OC)-c1ccccc1CC3N(C(=O)c1cc[n+](Cc3cccc(F)c3)cc1)CC2` (racemic): the half-maximal inhibitory concentration (IC50) in series [1] was 450 nM; in series [2], 1340 nM. In addition, the Ratio IC50 in series [3] was 3.

On to `COc1cc2c3c(cc4ccccc4c3c1OC)N(C(=O)c1ccncc1)CC2`, for which the inhibition in series [5] came to 16%.

On to `COc1cc2c3c(c1OC)-c1ccccc1CC3N(C(=O)c1cc[n+](Cc3ccccc3Cl)cc1)CC2.[Br-]` (racemic), for which the IC50 stood at 180 nM in series [1] and 710 nM in series [2]. For the same compound, the Ratio IC50 in series [3] is 3.9. The Activity in series [6] is listed as 2.96%. The compound also had a logP in series [4] of 2.36.

With `COc1cc2c3c(c1OC)-c1ccccc1CC3N(C(=O)c1cc[n+](Cc3ccccc3)cc1)CC2.[Br-]` (racemic), the IC50 in series [1] came out at 350 nM; in series [2] it was 1330 nM. Besides, the Ratio IC50 in series [3] came to 3.8. Further, the Activity in series [6] worked out at 3.62%. For the same compound, in series [4], the logP was found to be 2.2.

Consider `COc1cc2c3c(c1OC)-c1ccccc1CC3N(C(=O)c1cc[n+](Cc3cccc(Cl)c3)cc1)CC2` (racemic), for which the IC50 came out at 2150 nM in series [1] and 960 nM in series [2]. In series [3], the Ratio IC50 came out at 0.5. The compound further had a logP in series [4] of 2.62.

For the compound `COc1cc2c3c(c1OC)-c1ccccc1CC3N(C(=O)c1cc[n+](Cc3ccc(Cl)cc3)cc1)CC2` (racemic), in series [5], the inhibition stood at 31%. Besides, the logP in series [4] came out at 2.67.

As a reminder, the Ki is a measure of affinity in units of concentration, obtained from inhibition or displacement. As to `COc1cc2c3c(c1OC)-c1ccccc1C[C@H]3N(C(=O)c1cc[n+](Cc3ccccc3Cl)cc1)CC2.[Br-]`, the results for the IC50 in series [1] and in series [2] were 2940 nM and 2490 nM, respectively. Also, the Ratio IC50 in series [3] amounted to 0.8. Besides, the Activity in series [6] is given as 5.3%. Moreover, the Ki in series [7] came out at 1650 nM. This compound showed a logP in series [4] of 2.36.

Take `COc1cc2c3c(c1OC)-c1ccccc1CC3N(C(=O)c1cc[n+](Cc3cccc(F)c3F)cc1)CC2` (racemic): the figures for the IC50 in series [1] and in series [2] were 750 nM and 1540 nM, respectively. Also, in series [3], the Ratio IC50 is 2.

Turning to `COc1cc2c3c(cc4ccccc4c3c1OC)N(C(=O)c1cc[n+](Cc3ccccc3F)cc1)CC2`, the half-inhibitory concentration (IC50) in series [1] turned out to be 2730 nM; in series [2], 280 nM. Besides, the Ratio IC50 in series [3] turned out to be 0.1.

Consider `COc1cc2c3c(c1OC)-c1ccccc1C[C@@H]3N(C(=O)c1cc[n+](Cc3ccccc3)cc1)CC2`, for which the figures for the IC50 in series [1] and in series [2] were 120 nM and 4900 nM, respectively. Moreover, the Ratio IC50 in series [3] is 40.8. Besides, the Ki in series [7] worked out at 170 nM. Besides, the logP in series [4] worked out at 2.2.

For the compound `COc1cc2c3c(c1OC)-c1ccccc1C[C@H]3N(C(=O)c1cc[n+](Cc3ccccc3)cc1)CC2`, the results for the IC50 in series [1] and in series [2] were 7150 nM and 4950 nM, respectively. Moreover, in series [3], the Ratio IC50 was found to be 0.7. Besides, the Ki in series [7] is 2570 nM. This compound also yielded a logP in series [4] of 2.2.

`COc1cc2c3c(cc4ccccc4c3c1OC)N(C(=O)c1cc[n+](Cc3ccccc3)cc1)CC2` came in with an inhibition in series [5] of 69%.

For `COc1cc2c3c(c1OC)-c1ccccc1C[C@@H]3N(C(=O)c1cc[n+](Cc3ccccc3Cl)cc1)CC2.[Br-]`, the concentration for half-maximal inhibition (IC50) in series [1] was 60 nM; in series [2] it was 1820 nM. In series [3], the Ratio IC50 was determined as 30.3. Also, the Activity in series [6] amounted to 5.03%. For the same compound, in series [7], the Ki is 220 nM. The same compound came in with a logP in series [4] of 2.36.

In the case of `COc1cc2c3c(c1OC)-c1ccccc1C[C@H]3N(C(=O)c1cc[n+](Cc3ccc(F)cc3)cc1)CC2`, the IC50 in series [1] was 12200 nM; in series [2], 15400 nM. Also, the Ratio IC50 in series [3] was 1.3. Moreover, the Ki in series [7] turned out to be 6870 nM. Besides, the logP in series [4] is 2.3.

In series [5], `COc1cc2c3c(c1OC)-c1ccccc1CC3N(C(=O)c1ccncc1)CC2` (racemic) displayed an inhibition of 5%.

As for `COc1cccc2c1C(=O)c1c(O)c3c(c(O)c1C2=O)C[C@@](O)(C(=O)CO)C[C@@H]3O[C@H]1C[C@H](N)[C@H](O)[C@H](C)O1` [DOXORUBICIN HYDROCHLORIDE], the IC50 in series [8] was 1.54 µg/mL.

In the case of `COc1cc2c3c(c1OC)-c1ccccc1C[C@@H]3N(C(=O)c1cc[n+](Cc3ccc(F)cc3)cc1)CC2`, the IC50 in series [1] was 370 nM; in series [2] it was 8580 nM. In addition, the Ratio IC50 in series [3] turned out to be 23.2. Besides, the Ki in series [7] turned out to be 270 nM. Besides, in series [4], the logP was 2.3.
